Laboratory results: patent publication US20200172913A1, “PEPTIDES AND NANOPARTICLES FOR INTRACELLULAR DELIVERY OF VIRUS” (priority 2017, published 2020)
Where no end group is shown, it is not given here. PEG = not defined here; βAla = NCCC(=O)O

How the values were obtained:
293 T cells = experiment: AAV-2/PEP-1 peptide particle stability (serum, heparin), GFP expressing cells by flow cytometry; format: cell-based; details: for effect of the modification on AAV/PEP-1 complex stability in serum: high concentration of serum; for reduction of the level of GFP expressing cells (efficacy): particles incubated 1 hour in 50% serum, 50 μM peptide, AAV-2 MOI of 300; for increase of efficacy: standard conditions (no serum, no heparin), vs unmodified PEP-1
Description: Stock solutions of peptides were prepared at 2 mg/mL in distilled water or 5% DMSO and sonicated for 10 min in a water bath sonicator then diluted just before use. AAV-2 encoding green fluorescent protein at MOI of 300 was pre-incubated in low salt medium with PEP-1 peptides containing either a specific targeting motif, a PEG or Dopamine moiety at a concentration of 50 μM for 30 min. The AAV-2/peptide particle stability was evaluated in different conditions. Particles were incubated for 1 hour in DMEM medium containing 10, 20 to 50% serum (FSC) or in the presence of heparin (5 and 10 μg). Then AAV alone or PEP-1/AAV complexes were added to cultured 293 T cells in a 24 well plate format. Cells were treated with either free AAV-2 or Peptide/AAV-2 complexes for 4 h, and then the medium was replaced with fresh medium. Viral mediated transgene expression was monitored 2 days post-infection. GFP expressing cells were detected by flow cytometry.

HepG2 cells [1] = experiment: AAV-6-GFP transduction with CPPs, flow cytometry; format: cell-based, human; details: 200 μM CPP; for cells expressing GFP: AAV-6 MOI of 500, HepG2, 5% in the absence of CPP; for increase of AAV-6 efficiency: MOI of 500, HepG2
Description: (§1) In this example different AAV serotypes including AAV 1, AAV2, AAV5, AAV6, AAV8 and AAV9 were tested against human hepatocytes (HepG2) and human neuronal cells (HCN2) in the presence or in the absence of CPPs including ADGN-103a, ADGN-103b, ADGN-100, ADGN-109, ADGN-106, PEP-1, PEP-2, CADY, and TAT-HA2.
(§2) AAV-1, AAV-2, AAV-5, and AAV-6 viruses encoding green fluorescent protein were obtained from Cell Biolabs Inc and AAV-8 from Vector Biolabs. Stock solutions of virus were obtained at 1χ10^13 GC/ml in PBS/0.01% and diluted 50-fold to 2×10^11 GC/ml before use.
(§3) AAV-1, AAV-2, AAV-5, and AAV6 encoding green fluorescent protein were used at low MOI of 500 (1-2×10^7 PFU) and AAV-8 at MOI of 1000 (2-4×10^7 PFU). HepG2 and HCN2 cells (1 10^6 cells per well) were cultured in a 24 well plate culture dish format. For MOI of 1000, 5 μl of AAV virus diluted solutions were preincubated in PBS with increasing concentration of CPPs ranging from 0.1 to 200 μM for 30 min. For MOI of 500, 2.5 μl of AAV virus diluted solutions were preincubated in PBS with increasing concentration of CPPs ranging from 0.1 to 200 μM for 30 min. 200 μl of AAV or CPP/AAV complex solutions were added to cultured cells (1×10^6 cells per well). Cells are treated with either free AAV or CPP/AAV complexes for 4 h. and then the medium is replaced with fresh medium.
(§4) Viral mediated transgene expression was monitored by flow cytomety 2 days post-infection in HepG2 and Human neuronal HCN2. The percentage of GFP expressing cells were detected by flow cytometry and the increase of AAV infectivity was calculated based on the number of GFP-positive cells. Results are reported in FIGS. 5A-5D, 6A-6D, 7A-7D, 8A-8D, and 9A-9D.

HCN2 cells [2] = experiment: AAV-6-GFP transduction with CPPs, flow cytometry; format: cell-based, human; details: for increase of AAV-6 efficiency: 200 μM CPP, MOI of 500, HCN2; for cells expressing GFP: 200 μM of CPP, AAV-6 MOI of 500, HCN2, 4% in the absence of CPP
Description: as §1, §2, §3, §4

HepG2 cells [3] = experiment: AAV-5-GFP transduction with CPPs, flow cytometry; format: cell-based, human; details: 200 μM CPP; for cells expressing GFP: AAV-5 MOI of 500, HepG2, 5% in the absence of CPP; for increase of AAV-5 efficiency: MOI of 500, HepG2
Description: as §1, §2, §3, §4

HCN2 cells [4] = experiment: AAV-5-GFP transduction with CPPs, flow cytometry; format: cell-based, human; details: 200 μM CPP; for cells expressing GFP: AAV-5 MOI of 500, HCN2, 5% in the absence of CPP; for increase of AAV-5 efficiency: MOI of 500, HCN2
Description: as §1, §2, §3, §4

HepG2 cells [5] = experiment: AAV-8-GFP transduction with CPPs, flow cytometry; format: cell-based, human; details: 200 μM CPP, AAV-8 MOI of 1000, HepG2; 5% in the absence of CPP
Description: as §1, §2, §3, §4

HCN2 cells [6] = experiment: AAV-8-GFP transduction with CPPs, flow cytometry; format: cell-based, human; details: 200 μM CPP, AAV-8 MOI of 1000, HCN2; 5% in the absence of CPP
Description: as §1, §2, §3, §4

HepG2 cells [7] = experiment: AAV-2-GFP transduction with CPPs, flow cytometry; format: cell-based, human; details: 200 μM CPP; for cells expressing GFP: AAV-2 MOI of 500, HepG2, 4% in the absence of CPP; for increase of AAV-2 efficiency: MOI of 500, HepG2
Description: as §1, §2, §3, §4

HCN2 cells [8] = experiment: AAV-2-GFP transduction with CPPs, flow cytometry; format: cell-based, human; details: 200 μM CPP; for cells expressing GFP: AAV-2 MOI of 500, HCN2, 4% in the absence of CPP; for increase of AAV-2 efficiency: MOI of 500, HCN2
Description: as §1, §2, §3, §4

HepG2 cells [9] = experiment: AAV-1-GFP transduction with CPPs, flow cytometry; format: cell-based, human; details: 200 μM CPP; for cells expressing GFP: AAV-1 MOI of 500, HepG2, 5% in the absence of CPP
Description: as §1, §2, §3, §4

HCN2 cells [10] = experiment: AAV-1-GFP transduction with CPPs, flow cytometry; format: cell-based, human; details: 200 μM CPP; for cells expressing GFP: AAV-1 MOI of 500, HCN2, 5% in the absence of CPP; for increase of AAV-1 efficiency: MOI of 500, HCN2
Description: as §1, §2, §3, §4

HepG2 and HCN2 cells [11] = experiment: AAV-5-GFP transduction with CPPs, statements for both cell lines; format: cell-based, human; details: for impact on AAV-5 infectivity: 1 μM concentration, both cell lines; for share of the final improvement obtained at 200 μM: 10 μM concentration, AAV-5, both cell lines
Description: as §1, §2, §3, §4

HepG2 and HCN2 cells [12] = experiment: AAV-6-GFP transduction with CPPs, statements for both cell lines; format: cell-based, human; details: for impact on AAV-6 infectivity: 1 μM concentration, both cell lines; for share of the final improvement obtained at 200 μM: 10 μM concentration, AAV-6, both cell lines
Description: as §1, §2, §3, §4

HepG2 and HCN2 cells [13] = experiment: AAV-1-GFP transduction with CPPs, statements for both cell lines; format: cell-based, human; details: for impact on AAV-1 infectivity: 1 μM concentration, both cell lines; for share of the final improvement obtained with 200 μM: 10 μM concentration of CPP, AAV-1, both cell lines
Description: as §1, §2, §3, §4

HepG2 and HCN2 cells [14] = experiment: AAV-2-GFP transduction with CPPs, statements for both cell lines; format: cell-based, human; details: for impact on AAV-2 infectivity: 1 μM concentration, both cell lines; for share of the final improvement obtained with 200 μM: 10 μM concentration of CPP, AAV-2, both cell lines
Description: as §1, §2, §3, §4

HepG2 and HCN2 cells [15] = experiment: AAV-8-GFP transduction with CPPs, statements for both cell lines; format: cell-based, human; details: for impact on AAV-8 infectivity: 1 μM concentration, both cell lines; for share of the final improvement obtained at 200 μM: 10 μM concentration, AAV-8, both cell lines
Description: as §1, §2, §3, §4

Row | Substance | effect of the modification on AAV/PEP-1 complex stability in serum (293 T cells) | reduction of the level of GFP expressing cells (efficacy) (293 T cells) [%] | cells expressing GFP (HepG2 cells [1]) [%] | increase of AAV-6 efficiency (HCN2 cells [2]) [fold] | cells expressing GFP (HCN2 cells [2]) [%] | cells expressing GFP (HepG2 cells [3]) [%] | cells expressing GFP (HCN2 cells [4]) [%] | increase of AAV-5 efficiency (HCN2 cells [4]) [fold] | cells expressing GFP (HepG2 cells [5]) [%] | cells expressing GFP (HCN2 cells [6]) [%] | cells expressing GFP (HepG2 cells [7]) [%] | cells expressing GFP (HCN2 cells [8]) [%] | increase of AAV-2 efficiency (HCN2 cells [8]) [fold] | cells expressing GFP (HepG2 cells [9]) [%] | cells expressing GFP (HCN2 cells [10]) [%] | increase of AAV-1 efficiency (HCN2 cells [10]) [fold] | also measured
1 | DOPA-GGGG-KETWWETWWTEWSQPKKKRKV (GGGGKETWWETWWTEWSQPKKKRKV; not fully specified (N-terminus)) [PEP-1-DOPA, Dopamine added to the N-terminus of PEP-1 using a Gly4 linker] | stabilized | 30 | – | – | – | – | – | – | – | – | – | – | – | – | – | – | increase of efficacy (293 T cells): 40%
2 | GLWRALWRLLRSLWRLLWKV [CADY, reference compound] | – | – | 29 | 3 | 18 | 11 | 10 | 2 | 15 | 12 | 23 | 20 | 3 | 27 | 22 | 3 | increase of AAV-5 efficiency (HepG2 cells [3]): 3 fold; increase of AAV-2 efficiency (HepG2 cells [7]): 5 fold
3 | GYVSK-GGGGSKETWWETWWTEWSQPKKKRKV (Ac-GYVSKGGGGSKETWWETWWTEWSQPKKKRKV-cysteamide) [PEP-1 T1] | significantly protected | 27 | – | – | – | – | – | – | – | – | – | – | – | – | – | – | –
4 | KETWWETWWTEWSQPKKKRKVGGGG-GYVSK (Ac-KETWWETWWTEWSQPKKKRKVGGGGGYVSK-cysteamide) [PEP-1 T2] | only a moderate effect | – | – | – | – | – | – | – | – | – | – | – | – | – | – | – | –
5 | PEG-βAKETWWETWWTEWSQPKKKRKV ({PEG-βAla}-KETWWETWWTEWSQPKKKRKV; reading uncertain) [PEP-1-PEG, PEP-1 mono-PEGylated with 5 kDa PEG at the N-terminal beta Alanine] | stabilized | 30 | – | – | – | – | – | – | – | – | – | – | – | – | – | – | increase of efficacy (293 T cells): 40%
6 | βAKWFERWFREWPRKRR (not fully specified (residue 1, N-terminus); printed as βAKWFERWFREWPRKRR) [ADGN-103a] | – | – | 94 | – | 65 | 60 | 45 | – | 52 | 49 | 98 | 71 | – | 76 | 75 | – | impact on AAV-5 infectivity (HepG2 and HCN2 cells [11]): significant impact; share of the final improvement obtained at 200 μM (HepG2 and HCN2 cells [11]): about 50%; impact on AAV-6 infectivity (HepG2 and HCN2 cells [12]): significant impact; share of the final improvement obtained at 200 μM (HepG2 and HCN2 cells [12]): about 70%; impact on AAV-1 infectivity (HepG2 and HCN2 cells [13]): significant impact; share of the final improvement obtained with 200 μM (HepG2 and HCN2 cells [13]): about 60%; impact on AAV-2 infectivity (HepG2 and HCN2 cells [14]): significant impact; share of the final improvement obtained with 200 μM (HepG2 and HCN2 cells [14]): about 70%; impact on AAV-8 infectivity (HepG2 and HCN2 cells [15]): significant impact; share of the final improvement obtained at 200 μM (HepG2 and HCN2 cells [15]): about 60%
7 | βAKWRSAGWRWRLWRVRSWSR (not fully specified (residue 1, N-terminus); printed as βAKWRSAGWRWRLWRVRSWSR) [ADGN-100] | – | – | 59 | 15 | 48 | 39 | 22 | 5 | 26 | 23 | 57 | 59 | 15 | 50 | 52 | 12 | increase of AAV-6 efficiency (HepG2 cells [1]): 17 fold; impact on AAV-5 infectivity (HepG2 and HCN2 cells [11]): significant impact; share of the final improvement obtained at 200 μM (HepG2 and HCN2 cells [11]): about 50%; increase of AAV-5 efficiency (HepG2 cells [3]): 10 fold; impact on AAV-6 infectivity (HepG2 and HCN2 cells [12]): significant impact; share of the final improvement obtained at 200 μM (HepG2 and HCN2 cells [12]): about 70%; impact on AAV-1 infectivity (HepG2 and HCN2 cells [13]): significant impact; share of the final improvement obtained with 200 μM (HepG2 and HCN2 cells [13]): about 60%; increase of AAV-2 efficiency (HepG2 cells [7]): 20 fold; increase of AAV-1 efficiency (HepG2 cells [9]; MOI of 500, HepG2): 13 fold; impact on AAV-2 infectivity (HepG2 and HCN2 cells [14]): significant impact; share of the final improvement obtained with 200 μM (HepG2 and HCN2 cells [14]): about 70%; impact on AAV-8 infectivity (HepG2 and HCN2 cells [15]): significant impact; share of the final improvement obtained at 200 μM (HepG2 and HCN2 cells [15]): about 60%
8 | βALWRALWRLWRSLWRLLWKA (not fully specified (residue 1, N-terminus); printed as βALWRALWRLWRSLWRLLWKA) [ADGN-106] | – | – | – | 7 | – | – | – | 4 | – | – | – | – | 7 | – | – | 7 | increase of AAV-6 efficiency (HepG2 cells [1]): about 10 fold
